Measured values from ChEMBL document CHEMBL4828717, “Synthetic cajaninstilbene acid derivatives eradicate methicillin-resistant Staphylococcus aureus persisters and biofilms” (Eur J Med Chem, 2021).

Legend:
Staphylococcus aureus [1] = assay: Antibacterial activity against methicillin resistant Staphylococcus aureus ATCC49025 assessed as reduction in microbial growth after 16 to 18 hrs by microbroth dilution method; type: functional; conditions: time 16-18 hrs
Staphylococcus aureus [2] = assay: Antibacterial activity against methicillin resistant Staphylococcus aureus ATCC513045 assessed as reduction in microbial growth after 16 to 18 hrs by microbroth dilution method; type: functional; conditions: time 16-18 hrs
Staphylococcus aureus [3] = assay: Antibacterial activity against methicillin resistant Staphylococcus aureus ATCC515992 assessed as reduction in microbial growth after 16 to 18 hrs by microbroth dilution method; type: functional; conditions: time 16-18 hrs
Enterococcus faecalis = assay: Antibacterial activity against Enterococcus faecalis ATCC29212 assessed as reduction in microbial growth after 16 to 18 hrs by microbroth dilution method; type: functional; conditions: ATCC 29212, time 16-18 hrs
Staphylococcus aureus [4] = assay: Antibacterial activity against methicillin resistant Staphylococcus aureus ATCC48966 assessed as reduction in microbial growth after 16 to 18 hrs by microbroth dilution method; type: functional; conditions: time 16-18 hrs
Staphylococcus aureus [5] = assay: Antibacterial activity against methicillin resistant Staphylococcus aureus ATCC 43300 assessed as reduction in microbial growth after 16 to 18 hrs by microbroth dilution method; type: functional; conditions: time 16-18 hrs
Escherichia coli = assay: Antibacterial activity against Escherichia coli ATCC25922 assessed as reduction in microbial growth after 16 to 18 hrs by microbroth dilution method; type: functional; conditions: ATCC 25922, time 16-18 hrs
L02 = assay: Cytotoxicity against human L02 cells assessed as cell viability at 10 ug/ml measured after 24 hrs by MTT assay; type: cell-based; conditions: l02, 24 h, dose 10 µg/ml
Staphylococcus aureus [6] = assay: Antibacterial activity against methicillin resistant Staphylococcus aureus ATCC 62202 assessed as reduction in microbial growth after 16 to 18 hrs by microbroth dilution method; type: functional; conditions: time 16-18 hrs
Pseudomonas aeruginosa = assay: Antibacterial activity against Pseudomonas aeruginosa ATCC27853 assessed as reduction in microbial growth after 16 to 18 hrs by microbroth dilution method; type: functional; conditions: time 16-18 hrs
Staphylococcus aureus [7] = assay: Antibacterial activity against methicillin resistant Staphylococcus aureus ATCC48073 assessed as reduction in microbial growth after 16 to 18 hrs by microbroth dilution method; type: functional; conditions: time 16-18 hrs
RAW264.7 = assay: Cytotoxicity against mouse RAW264.7 cells assessed as cell viability at 10 ug/ml measured after 24 hrs by MTT assay; type: cell-based; conditions: raw264.7, 24 h, dose 10 µg/ml
Staphylococcus aureus [8] = assay: Antibacterial activity against methicillin resistant Staphylococcus aureus ATCC48706 assessed as reduction in microbial growth after 16 to 18 hrs by microbroth dilution method; type: functional; conditions: time 16-18 hrs
Staphylococcus aureus [9] = assay: Antibacterial activity against methicillin resistant Staphylococcus aureus ATCC 52056 assessed as reduction in microbial growth after 16 to 18 hrs by microbroth dilution method; type: functional; conditions: time 16-18 hrs
Staphylococcus aureus [10] = assay: Antibacterial activity against Staphylococcus aureus ATCC 25923 assessed as reduction in microbial growth after 16 to 18 hrs by microbroth dilution method; type: functional; conditions: time 16-18 hrs
Staphylococcus aureus [11] = assay: Antibacterial activity against methicillin resistant Staphylococcus aureus ATCC49800 assessed as reduction in microbial growth after 16 to 18 hrs by microbroth dilution method; type: functional; conditions: time 16-18 hrs
Staphylococcus aureus [12] = assay: Antibacterial activity against methicillin resistant Staphylococcus aureus ATCC49008 assessed as reduction in microbial growth after 16 to 18 hrs by microbroth dilution method; type: functional; conditions: time 16-18 hrs

Compound | MIC (Staphylococcus aureus [1]) [µg/mL] | MIC (Staphylococcus aureus [2]) [µg/mL] | MIC (Staphylococcus aureus [3]) [µg/mL] | MIC (Enterococcus faecalis) [µg/mL] | MIC (Staphylococcus aureus [4]) [µg/mL] | MIC (Staphylococcus aureus [5]) [µg/mL] | MIC (Escherichia coli) [µg/mL] | Activity (L02) | MIC (Staphylococcus aureus [6]) [µg/mL] | MIC (Pseudomonas aeruginosa) [µg/mL] | MIC (Staphylococcus aureus [7]) [µg/mL] | Activity (RAW264.7) | MIC (Staphylococcus aureus [8]) [µg/mL] | MIC (Staphylococcus aureus [9]) [µg/mL] | MIC (Staphylococcus aureus [10]) [µg/mL] | MIC (Staphylococcus aureus [11]) [µg/mL] | MIC (Staphylococcus aureus [12]) [µg/mL]
CC(C)=CCc1c(OCCCCF)cc(/C=C/c2ccc(F)cc2)c(C(=O)O)c1O | 4 | 4 | 4 | > 32 | 4 | 4 | > 32 | Toxic | 4 | > 32 | 4 | Toxic | 4 | 4 | 4 | 4 | 4
CCC(CC)Oc1cc(/C=C/c2ccc(F)cc2)c(C(=O)O)c(O)c1CC=C(C)C | 2 | 2 | 4 | > 32 | 2 | 2 | > 32 | Toxic | 2 | > 32 | 4 | Toxic | 2 | 2 | 2 | 2 | 2
GENTAMICIN |  |  |  |  |  | 16 |  |  |  |  |  |  |  |  |  |  | 
CC(C)=CCc1c(OC2CCCCC2)cc(/C=C/c2ccc(C(F)(F)F)cc2)c(C(=O)O)c1O | 4 | 2 | 2 | > 32 | 4 | 1 | > 32 | Toxic | 2 | > 32 | 4 | Toxic | 4 | 2 | 2 | 4 | 4
NC[C@H]1O[C@H](O[C@H]2[C@H](O)[C@@H](O[C@H]3O[C@H](CO)[C@@H](O)[C@H](N)[C@H]3O)[C@H](N)C[C@@H]2N)[C@H](N)[C@@H](O)[C@@H]1O [BEKANAMYCIN] |  |  |  |  |  | 128 |  |  |  |  |  |  |  |  |  |  | 
CC(C)=CCc1c(OCCCC(F)(F)F)cc(/C=C/c2ccc(C(F)(F)F)cc2)c(C(=O)O)c1O | 4 | 2 | 2 | > 32 | 4 | 1 | > 32 | Toxic | 4 | > 32 | 4 | Toxic | 4 | 2 | 2 | 4 | 4
CCC(C)Oc1cc(/C=C/c2ccc(C(F)(F)F)cc2)c(C(=O)O)c(O)c1CC=C(C)C (centres undefined) | 2 | 2 | 2 | > 32 | 2 | 1 | > 32 | Toxic | 2 | > 32 | 2 | Toxic | 2 | 2 | 2 | 2 | 2
CC(C)=CCc1c(OCCF)cc(/C=C/c2ccc(C(F)(F)F)cc2)c(C(=O)O)c1O | 8 | 4 | 4 | > 32 | 8 | 2 | > 32 | Toxic | 4 | > 32 | 8 | Toxic | 8 | 2 | 4 | 8 | 8
CC(C)=CCc1c(OC2CCC2)cc(/C=C/c2ccc(F)cc2)c(C(=O)O)c1O | 2 | 2 | 4 | > 32 | 2 | 2 | > 32 | Toxic | 4 | > 32 | 2 | Toxic | 2 | 2 | 2 | 2 | 2
CC1(C)S[C@@H]2[C@H](NC(=O)[C@H](N)c3ccccc3)C(=O)N2[C@H]1C(=O)O [AMPICILLIN] | > 128 | > 128 | > 128 | > 32 | > 128 | > 128 | > 32 |  | > 128 | > 32 | > 128 |  | > 128 | > 128 | 4 | > 128 | > 128
CCC(CC)Oc1cc(/C=C/c2ccc(C(F)(F)F)cc2)c(C(=O)O)c(O)c1CC=C(C)C | 2 | 1 | 2 | > 32 | 2 | 2 | > 32 | Toxic | 1 | > 32 | 2 | Toxic | 2 | 1 | 1 | 2 | 2
CCn1cc(C(=O)O)c(=O)c2cc(F)c(N3CCNCC3)cc21 [NORFLOXACIN] | 1 | 32 | 32 | > 32 | 1 | 32 | > 32 |  | 2 | > 32 | 1 |  | 2 | 2 | 2 | 1 | 1
CC(C)=CCc1c(OC2CCCCC2)cc(/C=C/c2ccc(F)cc2)c(C(=O)O)c1O | 4 | 2 | 4 | > 32 | 4 | 2 | > 32 | Toxic | 2 | > 32 | 4 | Toxic | 4 | 2 | 2 | 4 | 4
CC(C)=CCc1c(OC2CCCC2)cc(/C=C/c2ccc(C(F)(F)F)cc2)c(C(=O)O)c1O | 2 | 2 | 2 | > 32 | 2 | 2 | > 32 | Toxic | 2 | > 32 | 2 | Toxic | 2 | 2 | 2 | 2 | 2
CC(C)=CCc1c(OCC(F)(F)F)cc(/C=C/c2ccc(F)cc2)c(C(=O)O)c1O | 4 | 4 | 4 | > 32 | 4 | 2 | > 32 | Toxic | 4 | > 32 | 4 | Toxic | 4 | 2 | 4 | 4 | 4
COc1cc(/C=C/c2ccccc2)c(C(=O)O)c(O)c1CC=C(C)C | 8 | 16 | 16 | > 32 | 8 | 16 | > 32 |  | 16 | > 32 | 8 |  | 8 | 16 | 8 | 8 | 8
